# Earlier results, collected in patent US7485705B2, “Water-soluble tetrazolium compounds” (Dojindo Laboratories, priority 2003, dated 2009).
row,SMILES,water solubility of the formazan formed upon receiving hydrogen
1,"Cc1nc(-[n+]2nc(-c3ccccc3)nn2-c2ccccc2)sc1C.[Br-] [MTT, [3-(4,5-dimethylthiazol-2-yl)-2,5-diphenyltetrazolium bromide]]",insoluble in water
2,"COc1cc(-c2ccc(-[n+]3nc(-c4ccccc4)nn3-c3ccc([N+](=O)[O-])cc3)c(OC)c2)ccc1-[n+]1nc(-c2ccccc2)nn1-c1ccc([N+](=O)[O-])cc1.[Cl-].[Cl-] [nitro-TB, 3,3′-[3,3′-dimethoxy-(1,1′-biphenyl)-4,4′-diyl]-bis-[2-(4-nitrophenyl)-5-2H tetrazolium chloride]]",insoluble in water
